Results taken from patent US20260092074A1, “Annelated Pyridines as Steroidogenesis Inhibitors, Preparation Method and Use Thereof” (Guangzhou Vinnocent Pharmaceutical Limited, priority 2022, published 2026).

What was measured:
human CYP11B1 = biological target: T1, human CYP11B1 (Homo sapiens, UniProt P15538); assay: Inhibition of hCYP11B1 in transfected V79 cells; format: cell-based; conditions: hamster V79 cells expressing human CYP11B1; substrate 11-deoxycortisol 200 nM
T1 construct: expressed in transfected cells
T1 sequence (P15538 25-503): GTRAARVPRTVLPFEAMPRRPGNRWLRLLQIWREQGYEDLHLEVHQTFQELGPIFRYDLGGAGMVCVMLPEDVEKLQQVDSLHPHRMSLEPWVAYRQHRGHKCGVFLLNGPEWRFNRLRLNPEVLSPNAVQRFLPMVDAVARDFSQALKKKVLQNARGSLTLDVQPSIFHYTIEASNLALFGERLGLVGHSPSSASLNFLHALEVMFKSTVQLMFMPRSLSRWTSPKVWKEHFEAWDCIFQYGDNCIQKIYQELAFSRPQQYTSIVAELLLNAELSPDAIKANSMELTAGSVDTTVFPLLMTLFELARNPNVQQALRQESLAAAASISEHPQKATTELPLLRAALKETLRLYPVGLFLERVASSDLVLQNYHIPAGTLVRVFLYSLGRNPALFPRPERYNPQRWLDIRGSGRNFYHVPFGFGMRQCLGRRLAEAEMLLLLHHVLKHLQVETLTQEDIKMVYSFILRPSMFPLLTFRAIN
Summary of the method: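 V79 hamster cells stably expressing human CYP11B1 and rat NADPH-P450 reductase were preincubated with compounds for 2 h. 11-Deoxycortisol (200 nM) was then added as substrate for 30 min before ethyl acetate quench. Substrate and product were quantified by LC-MS/MS or HPLC at 260 nm, and IC50 was derived from percent inhibition.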

human CYP11B2 = biological target: T2, human CYP11B2 (Homo sapiens, UniProt P19099); assay: Inhibition of hCYP11B2 in transfected V79 cells; format: cell-based; conditions: hamster V79 cells expressing human CYP11B2; substrate 11-deoxycorticosterone 200 nM
T2 construct: expressed in transfected cells
T2 sequence (P19099 25-503): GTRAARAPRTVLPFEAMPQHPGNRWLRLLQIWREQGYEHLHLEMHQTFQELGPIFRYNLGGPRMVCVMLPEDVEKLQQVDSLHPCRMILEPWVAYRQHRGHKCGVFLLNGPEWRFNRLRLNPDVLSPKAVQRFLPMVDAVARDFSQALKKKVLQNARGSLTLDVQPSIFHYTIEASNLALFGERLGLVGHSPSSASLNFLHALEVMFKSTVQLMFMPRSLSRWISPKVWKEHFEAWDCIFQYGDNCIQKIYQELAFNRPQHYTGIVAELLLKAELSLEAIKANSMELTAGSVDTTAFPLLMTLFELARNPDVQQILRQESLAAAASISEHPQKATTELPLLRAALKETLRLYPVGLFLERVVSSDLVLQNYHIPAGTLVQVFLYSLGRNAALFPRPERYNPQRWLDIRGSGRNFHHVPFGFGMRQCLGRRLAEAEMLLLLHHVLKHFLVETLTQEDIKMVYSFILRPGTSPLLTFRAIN
Summary of the method: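 Hamster V79 cells stably co-expressing human CYP11B2 and rat NADPH-P450 reductase were pre-incubated with compounds for 2 hours, then given 200 nM 11-deoxycorticosterone for 30 minutes before ethyl acetate quench. Substrate and product were quantified by LC-MS/MS or HPLC at 260 nm, and IC50 was derived from percent inhibition.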

IC50 (human CYP11B1) [µM] | IC50 (human CYP11B2) [µM] | SMILES
2.17 | 0.039 | N#Cc1ccc(-c2cncc3c2OCCN3C(=O)C23CC(Nc4cccc(F)c4)(C2)C3)cc1 [O71, 4-(4-(3-((3-Fluorophenyl)amino)bicyclo[1.1.1]pentane-1-carbonyl)-3,4-dihydro-2H-pyrido[4,3-b][1,4]oxazin-8-yl)benzonitrile]
0.072 | 0.0008 | N#Cc1ccc(-c2cncc3c2OCCN3C(=O)C2CN(c3cccc(C#N)c3)C2)cc1 [O86, 3-(3-(8-(4-Cyanophenyl)-3,4-dihydro-2H-pyrido[4,3-b][1,4]oxazine-4-carbonyl)azetidin-1-yl)benzonitrile]
0.069 | 0.0014 | COc1cccc(CN2CC(C(=O)N3CCOc4c(-c5ccc(C#N)cc5)cncc43)C2)c1 [O82, 4-(4-(1-(3-Methoxybenzyl)azetidine-3-carbonyl)-3,4-dihydro-2H-pyrido[4,3-b][1,4]oxazin-8-yl)benzonitrile]
0.292 | 0.0036 | N#Cc1ccc(-c2cncc3c2OCCN3C(=O)c2ccc(Oc3ccc(F)cc3)s2)cc1 [O72, 4-(4-(5-(4-Fluorophenoxy)thiophene-2-carbonyl)-3,4-dihydro-2H-pyrido[4,3-b][1,4]oxazin-8-yl)benzonitrile]
0.079 | 0.0005 | N#Cc1ccc(-c2cncc3c2OCCN3S(=O)(=O)C2CC(Cc3ccccc3)=NO2)cc1 (stereo not drawn) [O103, 4-(4-((3-benzyl-4,5-dihydroisoxazol-5-yl)sulfonyl)-3,4-dihydro-2H-pyrido[4,3-b][1,4]oxazin-8-yl)benzonitrile]
2.06 | 0.079 | N#Cc1ccc(-c2cncc3c2SCCN3C(=O)c2cccc(C#N)c2)cc1 [S95, 3-(8-(4-Cyanophenyl)-3,4-dihydro-2H-pyrido[4,3-b][1,4]thiazine-4-carbonyl)benzonitrile]
4.44 | 0.0284 | N#Cc1ccc2cc(-c3cncc4c3OCCN4C(=O)C3CN(Cc4cccc(F)c4)C3)[nH]c2c1 [O92, 2-(4-(1-(3-Fluorobenzyl)azetidine-3-carbonyl)-3,4-dihydro-2H-pyrido[4,3-b][1,4]oxazin-8-yl)-1H-indole-6-carbonitrile]
4.21 | 0.021 | COc1ccc(C(=O)N2CCSc3c(-c4ccc(C#N)cc4)cncc32)cc1 [S97, 4-(4-(4-Methoxybenzoyl)-3,4-dihydro-2H-pyrido[4,3-b][1,4]thiazin-8-yl)benzonitrile]
1.27 | 0.097 | O=C(c1ccccc1F)N1CCc2c(-c3ccc4[nH]ncc4c3)cncc21 [C50, (4-(1H-Indazol-5-yl)-2,3-dihydro-1H-pyrrolo[2,3-c]pyridin-1-yl)(2-fluorophenyl)methanone]
> 10 | 0.152 | O=C(c1ccccc1F)N1CCc2c(-c3cc4ccccc4o3)cncc21 [C60, (4-(Benzofuran-2-yl)-2,3-dihydro-1H-pyrrolo[2,3-c]pyridin-1-yl)(2-fluorophenyl)methanone]
0.546 | 0.0174 | N#Cc1ccc(-c2cncc3c2OCCN3C(=O)CBr)cc1 [O34, 4-(4-(2-Bromoacetyl)-3,4-dihydro-2H-pyrido[4,3-b][1,4]oxazin-8-yl)benzonitrile]
> 5 | 0.243 | N#Cc1ccc(-c2cncc3c2SCCN3Cc2cccc([N+](=O)[O-])c2)cc1 [S3, 4-(4-(3-Nitrobenzyl)-3,4-dihydro-2H-pyrido[4,3-b][1,4]thiazin-8-yl)benzonitrile]
0.0002 | 0.0006 | N#Cc1ccc(-c2cncc3c2CCN3S(=O)(=O)c2ccc(Cl)cc2)cc1 [C13, 4-(1-((4-Chlorophenyl)sulfonyl)-2,3-dihydro-1H-pyrrolo[2,3-c]pyridin-4-yl)benzonitrile]
0.00061 | 0.00069 | N#Cc1ccc(-c2cncc3c2CCN3S(=O)(=O)c2cccc3ccccc23)cc1 [C18, 4-(1-(Naphthalen-1-ylsulfonyl)-2,3-dihydro-1H-pyrrolo[2,3-c]pyridin-4-yl)benzonitrile]
0.137 | 0.264 | COc1ccc(S(=O)(=O)N2CCSc3c(-c4cn[nH]c4)cncc32)cc1 [S39, 4-((4-Methoxyphenyl)sulfonyl)-8-(1H-pyrazol-4-yl)-3,4-dihydro-2H-pyrido[4,3-b][1,4]thia zine]
0.015 | 0.0003 | N#Cc1ccc(-c2cncc3c2SCCN3S(=O)(=O)c2ccc(C#N)cc2)cc1 [S21, 4-((8-(4-Cyanophenyl)-2,3-dihydro-4H-pyrido[4,3-b][1,4]thiazin-4-yl)sulfonyl)benzonitrile]
0.0002 | 0.0001 | N#Cc1ccc(-c2cncc3c2ccn3S(=O)(=O)c2cccc(Cl)c2)cc1 [E11, 4-(1-((3-Chlorophenyl)sulfonyl)-1H-pyrrolo[2,3-c]pyridin-4-yl)benzonitrile]
0.024 | 0.0003 | N#Cc1ccc(S(=O)(=O)N2CCSc3c(-c4cc5cc(C#N)ccc5o4)cncc32)cc1 [S42, 2-(4-((4-Cyanophenyl)sulfonyl)-3,4-dihydro-2H-pyrido[4,3-b][1,4]thiazin-8-yl)benzofuran-5-carbonitrile]
0.053 | 0.0016 | N#Cc1ccc(-c2cncc3c2OCCN3C(=O)C2CN(c3cccc(F)c3)C2)cc1 [O84, 4-(4-(1-(3-Fluorophenyl)azetidine-3-carbonyl)-3,4-dihydro-2H-pyrido[4,3-b][1,4]oxazin-8-yl)benzonitrile]
0.051 | 0.0068 | Cc1ccc(CC(=O)N2CCc3c(-c4ccc(C#N)cc4)cncc32)cc1 [C72, 4-(1-(2-(p-Tolyl)acetyl)-2,3-dihydro-1H-pyrrolo[2,3-c]pyridin-4-yl)benzonitrile]
0.0856 | 0.0197 | N#Cc1ccc(-c2cncc3c2OCCN3C(=O)c2ccc(C(F)(F)F)cc2)cc1 [O24, 4-(4-(4-(Trifluoromethyl)benzoyl)-3,4-dihydro-2H-pyrido[4,3-b][1,4]oxazin-8-yl)benzonitrile]
0.755 | 0.0045 | N#CN1CC(S(=O)(=O)N2CCSc3c(-c4cc5cc(Cl)ccc5o4)cncc32)C1 [S64, 3-((8-(5-Chlorobenzofuran-2-yl)-2,3-dihydro-4H-pyrido[4,3-b][1,4]thiazin-4-yl)sulfonyl) azetidine-1-carbonitrile]
3.4 | 0.108 | COc1ccc(C(=O)N2CCOc3c(-c4ccc(C#N)cc4)cncc32)cc1 [O22, 4-(4-(4-Methoxybenzoyl)-3,4-dihydro-2H-pyrido[4,3-b][1,4]oxazin-8-yl)benzonitrile]
0.455 | 0.0006 | O=C(c1ccc(F)cc1)n1ccc2c(-c3ccc4nccn4c3)cncc21 [E37, (4-Fluorophenyl)(4-(imidazo[1,2-a]pyridin-6-yl)-1H-pyrrolo[2,3-c]pyridin-1-yl)methanone]
0.966 | 0.0106 | N#Cc1ccc(-c2cncc3c2SCC(=O)N3C(=O)c2ccc(Cl)cc2)cc1 [S100, 4-(4-(4-chlorobenzoyl)-3-oxo-3,4-dihydro-2H-pyrido[4,3-b][1,4]thiazin-8-yl)benzonitrile]
0.0005 | 0.0005 | N#Cc1ccc(-c2cncc3c2ccn3S(=O)(=O)c2ccc([N+](=O)[O-])cc2)cc1 [E1, 4-(1-((4-Nitrophenyl)sulfonyl)-1H-pyrrolo[2,3-c]pyridin-4-yl)benzonitrile]
0.062 | 0.009 | COc1ccc(CC(=O)N2CCc3c(-c4ccc(C#N)cc4)cncc32)cc1 [C76, 4-(1-(2-(4-Methoxyphenyl)acetyl)-2,3-dihydro-1H-pyrrolo[2,3-c]pyridin-4-yl)benzonitrile]
